Results from patent publication US8282688B2, “Laccase mediators and methods of use” (Danisco US Inc., priority 2006, dated 2012).
Values joined by “and” are separate entries in the source; they are usually repeats but may differ in a detail not shown here. Equal entries are not always repeated.

Tests used:
[1] = test system: recombinant laccase D; experiment: Denim swatch bleaching, laccase and mediator concentration, Launder-O-meter (Example 10); format: biochemical, Cerrena unicolor; design: key: TCD = √(ΔL²+Δa²+Δb²) in CIE Lab, before vs after treatment; settings: 60° C., pH 6
Method: Laccase enzyme, derived from Cerrena unicolor (Example 7, 8570 U/ml, 4 mg protein/ml) was used in the experiments.
The enzyme incubations were done in an ATLAS LP 2 Launder-O-meter at different conditions in relation to pH, temperature, enzyme concentration and mediator concentration.
Reactions were carried out in 500 ml stainless steel reaction vessels containing 100 ml of liquid. To each vessel five (7×7 cm) stonewashed denim swatches (ACG denim style 80270) and 6 steel balls of 6 mm diameter were added. The reactions vessels were closed and entered into the launder-O-meter that was pre-heated to the desired temperature. The incubation was carried out for 30 minutes after which the swatches were washed with ‘running’ tap water, spin dried in an AEG IPX4 centrifuge and dried with an Elna Press Electronic iron at program cotton and evaluated.
The color of the five denim swatches is measured with a Minolta Chromameter CR 310 in the CIE Lab color space with a D 65 light source. Measurements were done before and after laccase treatment and the results of the five swatches were averaged. The total color difference (TCD) is calculated. The total color difference can be calculated with the formula: TCD=√(ΔL)^2+(Δa)^2+(Δb)^2.
The effect of laccase and mediator concentration was evaluated running the experiments in the tables below at pH 6 (50 mM monosodium phosphate buffer pH adjusted with sodium hydroxide 4N solution) and a temperature of 60° C.
The experiments were done with syringamide (SA)- and syringonitrile (SN) mediator.
100 ml buffer was added to a beaker with five swatches, 7×7 cm. The total weight 12 g, (denim:liquor ratio=1:8).
The amounts of syringamide or syringonitrile mediator as indicated in the tables below were added to each beaker as a dilution of a 275 mM SA—or—SN stock solution in 98% methanol. The laccase was added to each beaker as indicated in the tables below, as dilution of a 400 units/ml laccase stock solution. The beakers were closed and processed at 60° C. as described in the example 8. The swatches were evaluated as described in example 8.

[2] = test system: C. unicolor laccase; experiment: Stability of mediators in the presence of C. unicolor laccase, LC/MS of supernatant (Example 6); format: physicochemical; settings: for Initial Peak Area / Final Peak Area: LC/MS; for Initial Peak Area: 1 mM standard solution of mediator; for Final Peak Area: supernatant after denim disk bleaching; for Final Peak Area / % Remaining: 2 hours at 50° C.; for % Remaining: supernatant after contact with laccase and denim
Method: Aliquots of supernatant were analyzed by LC/MS following the denim disk bleaching protocol described in Example 5 in order to determine the final mediator concentrations in the supernatant following the 2 hour incubation period.
Standard solutions of the mediators were prepared by dilution of the methanolic stock solutions (20 mM) into deionized water, such that the final concentrations were 1 mM respectively for each of the three mediators methyl syringate (MS), 4-cyano-2,6-dimethoxyphenol (SN) and, 4-carboxamido-2,6-dimethoxyphenol (SA). Samples were analyzed using a Thermo Finnegan Quantum TSQ LC/MS system (Thermo Finnegan, San Jose, Calif.) operating in positive electrospray ionization mode. The liquid chromatography conditions were as follows: • Column; Agilent Zorbax SB-Aq, 2.1 mm×100 mm, […] silica • Solvent A; 20 mM Ammonium formate, pH 5.0 • Solvent B; 90% Methanol+10% solvent A • Flow rate; 250 uL/min • Injection volume; 5 uL • Elution program; 70% solvent A from 0 to 1 minute, to 30% A from 3 to 4 minutes, back to 70% A at 4.5 minutes, held at 70% A until 8 minutes overall.
The Mass spectrometry conditions were as follows: • Positive mode electrospray ionization (+ve ESI) in full scan mode, scanning from 175 to 240 Da in 0.5 seconds. • Spray voltage was 4200V, sheath gas flow rate 41 mL/min, aux gas flow rate at 15 mL/min. Tube lens voltage was 109V and capillary temperature was 270° C.

[3] = test system: Cerrena unicolor Laccase (recombinant laccase D); experiment: Laccase bleaching of stonewashed denim legs, effect of temperature, Unimac, recombinant laccase D (Example 9); format: biochemical; settings: laccase 0.05 g/l/0.4 U/ml, pH 6, 30 minutes
Method: (§1) Denim, 12 legs weighing approximately 3 kg, was desized in a Unimac UF 50 washing machine under the following conditions: • Desizing for 15 minutes at 10:1 liquor ratio 50° C. with 0.5 g/l (15 g) of Optisize 160 amylase (Genencor) and 0.5 g/l (15 g) of a non-ionic surfactant (e.g. Rucogen BFA, (Rudolf Chemie) or Ultravon GPN, (Huntsman)) • 2 cold rinses for 5 minutes at 30:1 liquor ratio.
(§2) Following desizing the denim was stonewashed in a Unimac UF 50 washing machine under the following conditions: • Cold rinse for 5 minutes at 10:1 liquor ratio • Stonewashing for 60 minutes at 10:1 liquor ratio 55° C. with 1 kg of pumice stone, citrate buffer (30 g tri-sodium citrate dihydrate and 30 g citric acid monohydrate) and 35 g IndiAge 2XL cellulase (Genencor). • 2 cold rinses for 5 minutes at 30:1 liquor ratio.
(§3) Denim legs were evaluated with a Minolta Chromameter CR 310 in the CIE Lab color space with a D 65 light source. Measurements were done only after laccase treatment. For each denim leg 8 measurements are taken and the result of the 12 legs (96 measurements) was averaged.
Laccase bleaching of stonewashed denim: Denim, 12 legs approximately 3 kg, was desized and stonewashed as described in example 8. After stonewashing a laccase treatment was done in a Unimac UF 50 washing machine according to the following process: • 30 minutes at 10:1 liquor ratio, • pH 6 (21 g monosodium phosphate and 5 g adipic acid, recombinant laccase D) or pH 4.8 (8.6 g monosodium phosphate and 16.8 g of adipic acid, Novoprime Base 268 laccase) • laccase (recombinant laccase D or Novoprime Base 268) • mediator (syringamide (SA) and syringonitrile (SN)) • After laccase treatment the denim use rinsed twice in cold water for 5 minutes at 30:1 liquor ratio.

[4] = test system: Cerrena unicolor Laccase (recombinant laccase D); experiment: Laccase bleaching of stonewashed denim legs, laccase dose response, Unimac (Example 11); format: biochemical; settings: pH 6, 60° C., 30 minutes
Method: as §1, §2, §3
Laccase bleaching of stonewashed denim—Denim, 12 legs weighing approximately 3 kg, was desized and stonewashed as described in Example 8. After stonewashing, a laccase treatment was done according to the following process: 30 minutes at 10:1 liquor ratio and pH 6 (21 g monosodium phosphate and 5 g adipic acid) and 60° C. with laccase and mediator. After laccase treatment the denim use rinsed twice in cold water for 5 minutes at 30:1 liquor ratio.

[5] = laccase 10 μl/l, mediator 0.10 mM
[6] = laccase 10 μl/l, mediator 0.55 mM
[7] = laccase 10 μl/l, mediator 1.00 mM
[8] = laccase 33 μl/l, mediator 0.33 mM
[9] = laccase 33 μl/l, mediator 0.78 mM
[10] = laccase 55 μl/l, mediator 0.10 mM
[11] = laccase 55 μl/l, mediator 0.55 mM
[12] = laccase 55 μl/l, mediator 1.00 mM
[13] = laccase 78 μl/l, mediator 0.33 mM
[14] = laccase 78 μl/l, mediator 0.78 mM
[15] = laccase 100 μl/l, mediator 0.10 mM
[16] = laccase 100 μl/l, mediator 0.55 mM
[17] = laccase 100 μl/l, mediator 1.00 mM

| Structure (SMILES) | TCD (total color difference) [1, 5] | TCD (total color difference) [1, 6] | TCD (total color difference) [1, 7] | TCD (total color difference) [1, 8] | TCD (total color difference) [1, 9] | TCD (total color difference) [1, 10] | TCD (total color difference) [1, 11] | TCD (total color difference) [1, 12] | TCD (total color difference) [1, 13] | TCD (total color difference) [1, 14] | TCD (total color difference) [1, 15] | TCD (total color difference) [1, 16] | TCD (total color difference) [1, 17] | Initial Peak Area [2] | Final Peak Area [2] | % Remaining [2] [%] | further results |
| --- | --- | --- | --- | --- | --- | --- | --- | --- | --- | --- | --- | --- | --- | --- | --- | --- | --- |
| COc1cc(C(N)=O)cc(OC)c1O [SA, 4-carboxamido-2,6-dimethoxyphenol] | 2.5 | 3.6 | 3.2 | 4.6 | 5.5 | 3.1 | 5.3 and 5.8 | 6.2 | 4.4 | 5.9 | 3.2 and 2.9 | 5.3 | 5.6 and 6.0 | 122 × 10^7 | 0.94 × 10^7 | 7.8 | Bleaching level (CIE L) ([3]; mediator 0.33 mM, 40 ° C.): 35.6; Bleaching level (CIE L) ([3]; mediator 0.33 mM, 60 ° C.): 35.6; Bleaching level (CIE L) ([4]; Syringamide 0.33 mM, Cerrena unicolor laccase 0.010 g/l): 34.6; Bleaching level (CIE L) ([4]; Syringamide 0.33 mM, Cerrena unicolor laccase 0.05 g/l): 36.2; Bleaching level (CIE L) ([4]; Syringamide 0.33 mM, Cerrena unicolor laccase 0.25 g/l): 36.2 |
| COc1cc(C#N)cc(OC)c1O [SN, 4-cyano-2,6-dimethoxyphenol] | 2.7 | 3.4 | 3.8 | 4.4 | 5.5 | 3.5 | 6.0 and 6.3 | 7.0 | 5.6 | 7.1 | 4.0 and 4.1 | 7.1 | 7.6 and 8.1 | 35.6 × 10^7 | 35.2 × 10^7 | 98.9 | Bleaching level (CIE L) ([3]; mediator 0.47 mM, 40 ° C.): 35.7; Bleaching level (CIE L) ([3]; mediator 0.47 mM, 60 ° C.): 35.9; Bleaching level (CIE L) ([4]; Syringonitrile 0.39 mM, Cerrena unicolor laccase 0.25 g/l): 37.7; Bleaching level (CIE L) ([4]; Syringonitrile 0.39 mM, Cerrena unicolor laccase 0.4 g/l): 39.5; Bleaching level (CIE L) ([4]; Syringonitrile 0.39 mM, Cerrena unicolor laccase 0.53 g/l): 38.8 |
